Laboratory results taken from ChEMBL document CHEMBL5653631, “A Potent and Selective ULK1 Inhibitor Suppresses Autophagy and Sensitizes Cancer Cells to Nutrient Stress” (iScience, 2018).
One block for each molecule: values may come before it.

What was measured:
[1] = target: T1, MAPK/MAK/MRK overlapping kinase (Homo sapiens) (UniProt Q9UQ07); assay: Inhibition of human recombinant MOK at 500 nM in presence of ATP by radiometric assay relative to control
T1 sequence (whole entry): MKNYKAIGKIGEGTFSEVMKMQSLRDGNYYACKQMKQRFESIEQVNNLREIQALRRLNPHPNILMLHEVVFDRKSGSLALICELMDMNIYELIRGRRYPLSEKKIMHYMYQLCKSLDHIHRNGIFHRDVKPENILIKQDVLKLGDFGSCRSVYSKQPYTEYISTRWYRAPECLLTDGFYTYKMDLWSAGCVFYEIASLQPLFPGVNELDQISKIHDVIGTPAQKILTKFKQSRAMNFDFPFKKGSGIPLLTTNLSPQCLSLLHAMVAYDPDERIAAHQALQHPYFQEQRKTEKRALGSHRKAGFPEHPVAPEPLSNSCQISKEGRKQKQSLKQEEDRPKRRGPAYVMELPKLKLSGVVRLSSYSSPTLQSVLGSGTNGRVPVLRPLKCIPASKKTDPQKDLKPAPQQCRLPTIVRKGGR

[2] = target: Serine/threonine-protein kinase NIM1 (Homo sapiens) (UniProt Q8IY84); assay: Inhibition of human recombinant NIM1 at 500 nM related to control ULK1
Sequence of Serine/threonine-protein kinase NIM1 (Homo sapiens) (Q8IY84 whole entry): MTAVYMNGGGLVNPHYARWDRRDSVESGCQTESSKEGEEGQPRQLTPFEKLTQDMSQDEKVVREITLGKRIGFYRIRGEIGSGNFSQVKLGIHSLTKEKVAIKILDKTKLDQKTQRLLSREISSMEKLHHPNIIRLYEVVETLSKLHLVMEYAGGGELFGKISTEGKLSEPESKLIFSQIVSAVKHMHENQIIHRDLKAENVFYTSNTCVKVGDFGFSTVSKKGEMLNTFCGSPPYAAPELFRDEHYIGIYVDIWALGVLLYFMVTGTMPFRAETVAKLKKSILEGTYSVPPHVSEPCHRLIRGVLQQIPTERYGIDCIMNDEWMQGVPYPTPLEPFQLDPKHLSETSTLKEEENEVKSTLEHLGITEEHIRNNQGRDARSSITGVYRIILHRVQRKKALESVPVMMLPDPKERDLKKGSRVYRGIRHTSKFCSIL

[3] = target: T2, Serine/threonine-protein kinase PLK4 (Homo sapiens) (UniProt O00444); assay: Inhibition of human recombinant PLK4 at 500 nM in presence of ATP by radiometric assay relative to control
T2 sequence (whole entry): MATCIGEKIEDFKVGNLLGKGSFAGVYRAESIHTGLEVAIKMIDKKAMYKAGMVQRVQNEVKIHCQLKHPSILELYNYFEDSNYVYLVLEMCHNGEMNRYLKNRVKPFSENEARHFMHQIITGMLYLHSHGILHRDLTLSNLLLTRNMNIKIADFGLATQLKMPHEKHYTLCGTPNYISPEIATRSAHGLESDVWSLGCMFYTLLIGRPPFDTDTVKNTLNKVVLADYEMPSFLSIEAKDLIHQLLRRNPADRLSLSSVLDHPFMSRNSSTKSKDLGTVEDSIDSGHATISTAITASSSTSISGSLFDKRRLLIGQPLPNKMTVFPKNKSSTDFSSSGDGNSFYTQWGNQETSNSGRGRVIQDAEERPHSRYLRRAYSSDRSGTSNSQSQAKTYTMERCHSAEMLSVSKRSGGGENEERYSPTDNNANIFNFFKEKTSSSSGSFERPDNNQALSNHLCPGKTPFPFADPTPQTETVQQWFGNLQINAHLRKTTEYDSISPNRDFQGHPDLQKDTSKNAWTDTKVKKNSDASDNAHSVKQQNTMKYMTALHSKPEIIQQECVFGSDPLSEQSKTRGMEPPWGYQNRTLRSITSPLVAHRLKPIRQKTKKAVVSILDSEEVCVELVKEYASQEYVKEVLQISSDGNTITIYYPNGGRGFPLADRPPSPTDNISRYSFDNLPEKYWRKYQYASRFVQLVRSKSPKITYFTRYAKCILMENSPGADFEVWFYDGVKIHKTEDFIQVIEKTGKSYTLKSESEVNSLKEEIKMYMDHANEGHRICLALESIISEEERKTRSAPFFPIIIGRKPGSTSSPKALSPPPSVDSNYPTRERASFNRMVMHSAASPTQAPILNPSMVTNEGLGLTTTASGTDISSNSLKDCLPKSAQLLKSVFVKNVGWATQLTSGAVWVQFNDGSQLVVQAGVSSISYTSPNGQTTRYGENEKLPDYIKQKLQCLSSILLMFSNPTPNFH

[4] = target: eIF-2-alpha kinase GCN2 (Homo sapiens) (UniProt Q9P2K8); assay: Inhibition of human recombinant GCN2 at 500 nM in presence of ATP by radiometric assay relative to control
Sequence of eIF-2-alpha kinase GCN2 (Homo sapiens) (Q9P2K8 whole entry): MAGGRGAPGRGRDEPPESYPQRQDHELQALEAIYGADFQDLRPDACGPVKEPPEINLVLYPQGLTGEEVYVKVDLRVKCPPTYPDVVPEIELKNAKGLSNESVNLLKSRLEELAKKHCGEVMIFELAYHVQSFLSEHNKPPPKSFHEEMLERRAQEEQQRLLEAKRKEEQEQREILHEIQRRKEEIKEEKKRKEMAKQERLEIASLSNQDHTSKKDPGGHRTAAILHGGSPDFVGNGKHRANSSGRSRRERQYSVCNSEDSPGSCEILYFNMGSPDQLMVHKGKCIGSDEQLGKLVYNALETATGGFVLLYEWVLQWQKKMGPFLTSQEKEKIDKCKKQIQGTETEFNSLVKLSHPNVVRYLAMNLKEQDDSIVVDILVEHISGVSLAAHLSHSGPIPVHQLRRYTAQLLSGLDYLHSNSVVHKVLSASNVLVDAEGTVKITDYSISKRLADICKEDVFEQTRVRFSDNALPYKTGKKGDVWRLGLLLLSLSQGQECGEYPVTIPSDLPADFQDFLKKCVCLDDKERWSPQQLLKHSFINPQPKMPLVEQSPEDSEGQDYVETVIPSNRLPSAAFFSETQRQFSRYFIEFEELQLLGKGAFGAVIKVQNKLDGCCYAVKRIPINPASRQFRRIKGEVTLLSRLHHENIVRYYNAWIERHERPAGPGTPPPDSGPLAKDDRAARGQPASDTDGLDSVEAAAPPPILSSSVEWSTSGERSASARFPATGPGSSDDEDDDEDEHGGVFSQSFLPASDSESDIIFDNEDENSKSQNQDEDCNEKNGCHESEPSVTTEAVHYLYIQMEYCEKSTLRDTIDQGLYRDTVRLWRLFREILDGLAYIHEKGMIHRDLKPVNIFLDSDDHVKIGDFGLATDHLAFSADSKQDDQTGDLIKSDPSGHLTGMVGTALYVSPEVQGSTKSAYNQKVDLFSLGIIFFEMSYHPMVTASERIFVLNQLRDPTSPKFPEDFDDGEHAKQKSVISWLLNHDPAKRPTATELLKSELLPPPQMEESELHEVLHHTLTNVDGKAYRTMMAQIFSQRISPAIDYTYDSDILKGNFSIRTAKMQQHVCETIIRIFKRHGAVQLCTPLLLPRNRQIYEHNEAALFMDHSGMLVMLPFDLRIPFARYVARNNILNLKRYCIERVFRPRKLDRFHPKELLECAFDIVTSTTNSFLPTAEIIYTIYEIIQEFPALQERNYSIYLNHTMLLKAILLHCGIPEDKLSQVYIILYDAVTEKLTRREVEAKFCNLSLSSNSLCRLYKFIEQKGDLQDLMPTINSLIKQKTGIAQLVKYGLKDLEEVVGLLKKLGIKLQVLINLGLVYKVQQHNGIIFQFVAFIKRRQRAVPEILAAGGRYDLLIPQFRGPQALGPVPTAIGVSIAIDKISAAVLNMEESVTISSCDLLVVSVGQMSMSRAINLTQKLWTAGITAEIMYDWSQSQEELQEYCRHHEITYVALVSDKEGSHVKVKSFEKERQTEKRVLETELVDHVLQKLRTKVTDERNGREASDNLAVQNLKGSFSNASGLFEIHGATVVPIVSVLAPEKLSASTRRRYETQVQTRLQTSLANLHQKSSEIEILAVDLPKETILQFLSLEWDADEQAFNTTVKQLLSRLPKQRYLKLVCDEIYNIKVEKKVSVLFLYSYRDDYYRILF

[5] = target: T3, Serine/threonine-protein kinase tousled-like 1 (Homo sapiens) (UniProt Q9UKI8); assay: Inhibition of human recombinant TLK1 at 15 nM related to control ULK1
T3 sequence (whole entry): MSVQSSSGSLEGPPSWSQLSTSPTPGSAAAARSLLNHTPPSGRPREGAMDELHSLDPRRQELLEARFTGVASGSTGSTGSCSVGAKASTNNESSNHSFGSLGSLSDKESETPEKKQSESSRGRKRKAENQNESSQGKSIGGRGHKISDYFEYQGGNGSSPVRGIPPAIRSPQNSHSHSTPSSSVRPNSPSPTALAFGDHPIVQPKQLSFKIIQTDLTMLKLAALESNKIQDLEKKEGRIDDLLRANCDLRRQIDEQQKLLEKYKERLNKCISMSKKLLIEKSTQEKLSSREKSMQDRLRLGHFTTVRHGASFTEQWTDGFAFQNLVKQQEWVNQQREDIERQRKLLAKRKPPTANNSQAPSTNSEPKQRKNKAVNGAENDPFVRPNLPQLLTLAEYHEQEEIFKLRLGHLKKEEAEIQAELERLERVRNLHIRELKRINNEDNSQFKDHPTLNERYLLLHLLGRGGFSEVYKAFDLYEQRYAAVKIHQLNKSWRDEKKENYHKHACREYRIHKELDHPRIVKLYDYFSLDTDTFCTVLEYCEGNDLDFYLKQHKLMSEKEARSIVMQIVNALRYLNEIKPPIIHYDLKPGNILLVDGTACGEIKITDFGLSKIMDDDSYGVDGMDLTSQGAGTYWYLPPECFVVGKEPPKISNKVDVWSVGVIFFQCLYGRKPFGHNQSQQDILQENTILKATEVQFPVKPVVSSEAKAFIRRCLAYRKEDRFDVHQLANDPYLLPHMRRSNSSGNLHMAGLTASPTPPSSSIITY

[6] = target: Dual specificity protein kinase CLK2 (Homo sapiens) (UniProt P49760); assay: Inhibition of human recombinant CLK2 at 15 nM in presence of ATP by radiometric assay relative to control
Sequence of Dual specificity protein kinase CLK2 (Homo sapiens) (P49760 whole entry, looked up): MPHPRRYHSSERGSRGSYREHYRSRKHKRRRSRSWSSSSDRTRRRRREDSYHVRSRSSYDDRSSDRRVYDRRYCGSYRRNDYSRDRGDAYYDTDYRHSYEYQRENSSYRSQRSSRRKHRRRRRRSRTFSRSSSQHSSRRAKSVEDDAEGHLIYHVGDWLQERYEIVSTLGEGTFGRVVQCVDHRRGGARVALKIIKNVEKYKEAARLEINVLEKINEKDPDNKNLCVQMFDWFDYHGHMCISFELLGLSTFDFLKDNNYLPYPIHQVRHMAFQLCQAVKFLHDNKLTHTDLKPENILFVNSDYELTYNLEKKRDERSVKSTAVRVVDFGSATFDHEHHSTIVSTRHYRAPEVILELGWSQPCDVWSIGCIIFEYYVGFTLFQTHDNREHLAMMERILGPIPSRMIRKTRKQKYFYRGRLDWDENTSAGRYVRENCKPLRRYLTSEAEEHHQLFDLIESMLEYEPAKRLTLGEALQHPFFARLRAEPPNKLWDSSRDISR

[7] = target: Transient receptor potential cation channel subfamily M member 7 (Homo sapiens) (UniProt Q96QT4); assay: Inhibition of human recombinant ChaK1 at 40 nM related to control ULK1
Sequence of Transient receptor potential cation channel subfamily M member 7 (Homo sapiens) (Q96QT4 whole entry): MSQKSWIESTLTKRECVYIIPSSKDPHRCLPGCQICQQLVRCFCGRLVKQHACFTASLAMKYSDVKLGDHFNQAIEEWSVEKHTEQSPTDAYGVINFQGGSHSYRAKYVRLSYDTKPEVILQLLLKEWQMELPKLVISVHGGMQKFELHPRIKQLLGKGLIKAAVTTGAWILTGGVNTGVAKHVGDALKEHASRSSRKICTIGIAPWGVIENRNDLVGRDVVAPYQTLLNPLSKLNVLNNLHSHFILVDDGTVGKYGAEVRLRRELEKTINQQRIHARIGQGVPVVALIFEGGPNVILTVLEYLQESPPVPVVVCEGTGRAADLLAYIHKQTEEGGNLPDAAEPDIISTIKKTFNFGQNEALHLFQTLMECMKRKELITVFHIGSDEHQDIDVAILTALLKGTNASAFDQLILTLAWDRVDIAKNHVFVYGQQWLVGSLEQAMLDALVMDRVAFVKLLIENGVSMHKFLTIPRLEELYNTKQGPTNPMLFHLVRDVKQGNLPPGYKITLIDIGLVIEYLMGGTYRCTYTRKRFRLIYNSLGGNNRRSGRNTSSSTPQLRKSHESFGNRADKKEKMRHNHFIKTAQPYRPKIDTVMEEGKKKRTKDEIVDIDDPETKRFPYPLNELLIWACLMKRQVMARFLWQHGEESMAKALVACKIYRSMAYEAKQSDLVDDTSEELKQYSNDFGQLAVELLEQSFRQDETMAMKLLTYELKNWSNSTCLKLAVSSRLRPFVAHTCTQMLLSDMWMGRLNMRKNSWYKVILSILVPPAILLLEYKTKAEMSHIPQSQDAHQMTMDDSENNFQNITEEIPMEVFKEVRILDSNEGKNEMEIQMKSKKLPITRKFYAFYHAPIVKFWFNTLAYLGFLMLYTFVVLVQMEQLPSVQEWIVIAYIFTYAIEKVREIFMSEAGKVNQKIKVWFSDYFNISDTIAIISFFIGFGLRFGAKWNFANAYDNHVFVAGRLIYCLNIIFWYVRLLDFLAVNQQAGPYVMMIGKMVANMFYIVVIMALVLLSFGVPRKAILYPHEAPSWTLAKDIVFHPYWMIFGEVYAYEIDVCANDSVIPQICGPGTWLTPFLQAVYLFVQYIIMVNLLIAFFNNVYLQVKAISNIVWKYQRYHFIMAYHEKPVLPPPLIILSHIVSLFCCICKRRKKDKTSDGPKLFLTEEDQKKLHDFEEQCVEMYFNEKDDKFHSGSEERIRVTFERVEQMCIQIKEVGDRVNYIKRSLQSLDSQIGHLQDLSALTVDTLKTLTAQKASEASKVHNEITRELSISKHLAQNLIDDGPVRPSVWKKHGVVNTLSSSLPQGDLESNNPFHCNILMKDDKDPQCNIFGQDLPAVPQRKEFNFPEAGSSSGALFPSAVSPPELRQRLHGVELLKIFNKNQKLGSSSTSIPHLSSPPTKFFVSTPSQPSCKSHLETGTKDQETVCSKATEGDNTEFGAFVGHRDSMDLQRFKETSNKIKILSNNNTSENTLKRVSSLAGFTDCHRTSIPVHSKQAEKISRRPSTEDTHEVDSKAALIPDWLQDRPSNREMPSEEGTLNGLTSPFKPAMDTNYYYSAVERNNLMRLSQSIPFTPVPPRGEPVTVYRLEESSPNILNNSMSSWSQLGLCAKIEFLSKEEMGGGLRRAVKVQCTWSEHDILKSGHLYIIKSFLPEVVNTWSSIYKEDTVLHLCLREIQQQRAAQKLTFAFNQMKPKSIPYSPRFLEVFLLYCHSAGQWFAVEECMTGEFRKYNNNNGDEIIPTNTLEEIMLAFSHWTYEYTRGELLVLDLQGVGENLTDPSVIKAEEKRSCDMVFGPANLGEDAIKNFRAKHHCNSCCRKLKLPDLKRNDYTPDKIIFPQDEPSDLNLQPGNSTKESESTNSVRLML

inhibition [1]: 2% | fold change (FC) [2]: 0 | inhibition [3]: 46% | inhibition [4]: 2%
Compound: CNC(=O)c1ccccc1Oc1nc(Nc2cc(OC)c(OC)c(OC)c2)ncc1Br

fold change (FC) [5]: 0 | inhibition [6]: 29%
Compound: CC(C)[C@H](NC(=O)c1cc(-c2cnn3cc(-c4ccc(OCCN5CCCCC5)cc4)cnc23)cs1)C(F)(F)F

fold change (FC) [7]: 0.01
Compound: O=C(N[C@@H](C1CC1)C(F)(F)F)c1cc(-c2cnn3cc(-c4ccc(F)cc4)cnc23)cs1
